The text below walks through data of patent publication US7781421B2, “Neuroactive 13, 24-cyclo-18, 21-dinorcholanes and structurally related pentacyclic steriods” (Washington University, priority 2003, dated 2010).

Where two headings read alike, the source gives them in different places. Where only a bound is given, the exact number is not on record here.

Data set [1] addresses GABAA receptor ([35S]-TBPS binding site, rat brain cortical membranes). Kind of data set: Displacement of [35S]-TBPS binding, rat brain cortical membranes. The note with it: 5 μM GABA, 2 nM [35S]-TBPS; ± standard error of the means. How it is done:
Rat brain cortical membranes were prepared with minor modifications of the method previously reported. (Hawkinson, J. E., et al., Correlation of Neuroactive Steroid Modulation of [^35S]t-Butylbicyclophosophorothionate and [^3H]Flunitrazepam Binding and γ-Aminobutyric AcidA Receptor Function, Mol. Pharmacol., 1994, 46, 977-985). Briefly, frozen rat cerebral cortices (Pel-freez, Rogers, Ak.) were thawed and homogenized in 10 volumes of ice-cold 0.32 M sucrose using a glass/Teflon pestle. The homogenate was centrifuged at 1500×g for 10 min at 4° C. The resultant supernatant was centrifuged at 10,000×g for 30 min at 4° C. The pellet (P2) from this centrifugation was resuspended in 200 mM NaCl, 50 mM potassium phosphate buffer, pH 7.4, and centrifuged at 10,000×g for 20 min at 4° C. This washing procedure was done a total of three times, and then pellets were resuspended in buffer (˜4 mL/brain) using a glass/Teflon pestle. The membrane suspension was aliquoted, frozen in liquid nitrogen, and stored at −80° C. prior to use.
[^35S]-TBPS Binding assays were done according to the procedure described previously (Hawkinson, J. E., et al., Correlation of Neuroactive Steroid Modulation of [^35S]t-Butylbicyclophosophorothionate and [^3H]Flunitrazepam Binding and γ-Aminobutyric AcidA Receptor Function, Mol. Pharmacol., 1994, 46, 977-985) with modifications. Briefly, aliquots of membrane solution (0.5 mg/mL final protein concentration in assay) were incubated with 5 μM GABA, 2 nM [^35S]-TBPS (45-120 Ci/mmol), and 5 μL aliquots of steroid in DMSO solution (final assay concentrations ranged from 1 nM to 10 μM), and brought to a final volume of 1 mL with 200 mM NaCl, 50 mM potassium phosphate buffer, pH 7.4. […] Assay tubes were incubated for 2 hr at room temperature. A Brandel (Gaithersburg, Md.) cell harvester was used for filtration of the assay tubes through Whatman/GF/C glass filter paper. Filter paper was rinsed with 4 mL of ice-cold buffer three times. Radioactivity bound to the filters was read by liquid scintillation counter and data was fit using Sigma Plot version 3.0 to the Hill equation i. f=Rmax/{1+([conc]/IC50)^n}
Where Rmax is the maximal effect, [conc] is steroid concentration, IC50 is the half-maximal inhibitor concentration and n is the Hill coefficient. Each data point was determined in triplicate and 2-3 full concentration-response curves were generated for each steroid.

Data set [2] concerns the target T1, rat α1β2γ2 GABAA Receptor (Rattus norvegicus, UniProt P18508+P62813+P63138, INS375LLRMFSFK).
T1 construct: from linearized pBluescript vectors containing receptor coding regions; expressed in transfected cells; host or cells: Xenopus laevis oocytes injected with in vitro transcribed capped mRNA
Kind of data set: Xenopus oocyte two-electrode voltage-clamp electrophysiology. It counts as cell-based. Conditions: for Oocyte electrophysiology, ratio of currents in presence/absence of compound, 0.1 μM: 0.1 μM compound co-applied with 2 μM GABA; for Oocyte electrophysiology, ratio of currents in presence/absence of compound, 0.1 μM / Oocyte electrophysiology, ratio of currents in presence/absence of compound, 1 μM / Oocyte electrophysiology, ratio of currents in presence/absence of compound, 10 μM: −70 mV; for Oocyte electrophysiology, ratio of currents in presence/absence of compound, 1 μM: 1 μM compound co-applied with 2 μM GABA; for Oocyte electrophysiology, ratio of currents in presence/absence of compound, 10 μM: 10 μM compound co-applied with 2 μM GABA; for Gating (10 μM), ratio of compound only current/2 μM GABA current: direct current gated by 10 μM compound in the absence of GABA. How it is done:
Stage V-VI oocytes were harvested from sexually mature female Xenopus laevis (Xenopus One, Northland, Mich.) under 0.1% tricaine (3-aminobenzoic acid ethyl ester) anesthesia. Oocytes were defolliculated by shaking for 20 min at 37° C. in collagenase (2 mg/ml) dissolved in calcium-free solution containing (in mM): 96 NaCl, 2 KCl, 1 MgCl2, and 5 HEPES at pH 7.4. Capped mRNA, encoding rat GABAA receptor α1, β2 and γ2L subunits was transcribed in vitro using the mMESSAGE mMachine Kit (Ambion, Austin, Tex.) from linearized pBluescript vectors containing receptor coding regions. Subunit transcripts were injected in equal parts (20-40 ng total RNA) 8-24 hours following defolliculation. Oocytes were incubated up to 5 days at 18° C. in ND96 medium containing (in mM): 96 NaCl, 1 KCl, 1 MgCl2, 2 CaCl2 and 5 HEPES at pH 7.4, supplemented with pyruvate (5 mM), penicillin (100 U/ml), streptomycin (100 μg/ml) and gentamycin (50 μg/ml). The cDNAs for the rat GABAA-receptor subunits were originally provided by A. Tobin, University of California, Los Angels (α1), P. Malherbe, Hoffman-La Roche, Switzerland (β2), C. Fraser, National Institute on Alcohol Abuse and Alcoholism (γ2L).
Two-electrode voltage-clamp experiments were performed with a Warner OC725 amplifier 2-5 days following RNA injection. The extracellular recording solution was ND96 medium with no supplements. Intracellular recording pipettes were filled with 3 M KCl and had open tip resistances of ˜1 MΩ. Drugs were applied from a common tip via a gravity-driven multibarrel drug-delivery system. Steroids were simultaneously co-applied with GABA. Cells were clamped at −70 mV for all experiments, and peak current during 20 s drug applications was measured. Data acquisition and analysis were performed with pCLAMP software (Axon Instruments, California). Statistical differences were determined using a two-tailed Student's t-test.
The GABA concentration used for the control response was 2 μM. Each compound was evaluated on at least four different oocytes at the concentrations indicated, and the results reported are the ratio of the currents measured in the presence/absence of added compound. (G) represents direct current gated by 10 μM compound in the absence of GABA, and this current is reported as the ratio of compound only current/2 μM GABA current. Error limits are calculated as standard error of the means.
For orientation: In two-electrode clamp one electrode senses voltage and the other passes current.

Another data set has as its system Xenopus laevis tadpoles. Kind of data set: Tadpole loss of righting (LRR) and swimming (LSR) reflexes. It is filed as in vivo. Conditions: 3 h equilibration at room temperature; for EC50: read-out: LSR EC50 (loss of swimming response). How it is done: Tadpole LRR was measured as described previously. (See, Wittmer, L. L., et al., Enantioselectivity of steroid-induced γ-aminobutyric acidA receptor modulation and anesthesia, Mol. Phar., 1996, 50:1581-1586). Briefly, groups of 10 early prelimb-bud stage Xenopus laevis tadpoles (Nasco, Fort Atkinson, Wis.) were placed in 100 mL of oxygenated Ringer's stock solution containing various concentrations of compound. Compounds were added from a 10 mM DMSO stock (final concentration of DMSO in test solutions ≦0.1%). After equilibrating at room temperature for 3 h, tadpoles were evaluated using the LRR and LSR behavioral endpoints. LRR was defined as failure of the tadpole to right itself within 5 sec after being flipped by a smooth glass rod. LSR was defined as failure of the tadpole to swim when touched by a smooth glass rod. In general, the tadpoles regained their righting and swimming reflexes when placed in fresh oxygenated Ringer's solution. Control beakers containing up to 0.6% DMSO produced no LRR or LSR in tadpoles.
Tadpole LRR and LSR concentration-response curves were fit using Sigma Plot version 3.0 to the Hill equation f=Rmax/{1+([conc]/EC50)^n}
where Rmax is the maximum effect, [conc] is the steroid concentration, EC50 is the half-maximal effective concentration, and n is the Hill coefficient.

T1 sequence (P62813 28-455, stated change not applied): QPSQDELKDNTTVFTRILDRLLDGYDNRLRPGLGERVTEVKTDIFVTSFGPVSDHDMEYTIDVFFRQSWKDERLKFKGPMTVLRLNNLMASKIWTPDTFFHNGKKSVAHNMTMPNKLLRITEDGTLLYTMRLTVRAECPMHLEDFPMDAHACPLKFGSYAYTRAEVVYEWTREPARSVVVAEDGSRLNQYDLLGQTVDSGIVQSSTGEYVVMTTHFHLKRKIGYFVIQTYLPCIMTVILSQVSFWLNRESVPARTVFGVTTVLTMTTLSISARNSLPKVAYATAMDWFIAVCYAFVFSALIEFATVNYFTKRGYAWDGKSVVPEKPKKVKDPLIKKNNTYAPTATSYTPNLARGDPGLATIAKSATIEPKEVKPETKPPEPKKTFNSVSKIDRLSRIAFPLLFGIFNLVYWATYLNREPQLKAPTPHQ
T1 sequence (P63138 26-474, stated change not applied): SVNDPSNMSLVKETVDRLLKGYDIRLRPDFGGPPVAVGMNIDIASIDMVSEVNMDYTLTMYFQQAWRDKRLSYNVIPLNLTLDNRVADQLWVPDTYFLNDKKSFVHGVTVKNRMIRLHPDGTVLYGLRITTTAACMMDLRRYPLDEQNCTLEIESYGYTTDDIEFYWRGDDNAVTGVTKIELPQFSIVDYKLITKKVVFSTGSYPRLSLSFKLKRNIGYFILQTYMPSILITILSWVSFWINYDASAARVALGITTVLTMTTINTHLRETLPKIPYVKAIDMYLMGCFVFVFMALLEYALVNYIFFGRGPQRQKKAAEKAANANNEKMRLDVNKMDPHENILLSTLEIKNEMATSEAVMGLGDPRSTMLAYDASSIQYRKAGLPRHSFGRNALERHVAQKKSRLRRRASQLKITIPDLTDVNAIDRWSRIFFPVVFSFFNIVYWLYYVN
T1 sequence (P18508 with tags, fused parts or gaps INS375LLRMFSFK): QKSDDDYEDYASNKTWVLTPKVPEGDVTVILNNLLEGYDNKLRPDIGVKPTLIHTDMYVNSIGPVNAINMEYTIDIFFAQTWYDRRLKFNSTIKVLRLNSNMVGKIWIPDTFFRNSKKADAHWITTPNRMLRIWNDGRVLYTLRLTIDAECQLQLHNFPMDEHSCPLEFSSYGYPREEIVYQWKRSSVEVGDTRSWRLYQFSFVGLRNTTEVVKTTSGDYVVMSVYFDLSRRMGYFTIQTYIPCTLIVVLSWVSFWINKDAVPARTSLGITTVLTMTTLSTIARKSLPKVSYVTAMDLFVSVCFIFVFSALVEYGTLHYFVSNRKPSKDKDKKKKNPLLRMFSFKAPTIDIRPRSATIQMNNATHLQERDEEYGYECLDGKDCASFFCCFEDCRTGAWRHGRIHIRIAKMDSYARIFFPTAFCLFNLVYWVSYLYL

Regarding `CC12CCC(O)CC1CCC1C2CCC23CC=CC(=O)C2CCC13` (stereo not drawn) [Compound 11a, (3α,5α)-3-Hydroxy-13,24-cyclo-18,21-dinorchol-22-en-20-one], the melting point (in general, the temperature of the solid-liquid transition) was 230 to 232 °C. Also, the IC50 (usually the concentration that inhibits the measured activity by half) in data set [1] worked out at 0.373 ± 0.02 µM. Besides, in data set [2], the “Oocyte electrophysiology, ratio of currents in presence/absence of compound, 0.1 μM” value came out at 1.49 ± 0.20; the “Oocyte electrophysiology, ratio of currents in presence/absence of compound, 1 μM” value is 5.87 ± 1.52; the “Oocyte electrophysiology, ratio of currents in presence/absence of compound, 10 μM” value amounted to 9.07 ± 1.86; the “Gating (10 μM), ratio of compound only current/2 μM GABA current” value (shortened to “Gating (10 μM), ratio”) is recorded as 0.72 ± 0.03. For the same molecule, in the data set on Xenopus laevis tadpoles, the “LRR ED50 (loss of righting response)” value came out at 3.38 ± 0.67 µM and the “LSR EC50 (loss of swimming response)” value was “None @ 10”.

In turn, `CC12CCC(O)CC1CCC1C2CCC23CCC(=CC#N)C2CCC13` (stereo not drawn) [Compound 97, (3α,5α,20Z)-3-Hydroxy-18,21-cyclopregnan-20-ylideneacetonitrile] yielded a melting point of 226 to 228 °C. Besides, in data set [1], the IC50 turned out to be 17.2 µM. In data set [2], the “Oocyte electrophysiology, ratio of currents in presence/absence of compound, 0.1 μM” value stood at 0.88 ± 0.07; the “Oocyte electrophysiology, ratio of currents in presence/absence of compound, 1 μM” value worked out at 0.87 ± 0.15; the “Oocyte electrophysiology, ratio of currents in presence/absence of compound, 10 μM” value is reported as 1.10 ± 0.08; the “Gating (10 μM), ratio” value is recorded as −0.02 ± 0.06. Moreover, in the data set with Xenopus laevis tadpoles, the “LRR ED50 (loss of righting response)” value is over 10 µM and the “LSR EC50 (loss of swimming response)” value was “None @ 10”.

For the molecule `C[C@]12CC[C@@H](O)C[C@@H]1CCC1C3CC[C@@H]4C[C@H](C#N)CC[C@]34CCC12` (stereo partly drawn) [Compound 45, (3α,5α,22R)-3-Hydroxy-13,24-cyclo-18,21-dinorcholane-22-carbonitrile], the melting point was 244 to 246 °C. Besides, in data set [1], the IC50 was 44.3 ± 21.3 µM. Moreover, in data set [2], the “Oocyte electrophysiology, ratio of currents in presence/absence of compound, 0.1 μM” value is 0.90 ± 0.02; the “Oocyte electrophysiology, ratio of currents in presence/absence of compound, 1 μM” value turned out to be 0.82 ± 0.02; the “Oocyte electrophysiology, ratio of currents in presence/absence of compound, 10 μM” value is recorded as 0.87 ± 0.01; the “Gating (10 μM), ratio” value was −0.01 ± 0. For the same molecule, in the data set with Xenopus laevis tadpoles, the “LRR ED50 (loss of righting response)” value is over 10 µM and the “LSR EC50 (loss of swimming response)” value is “None @ 10”.

For `CC12CCC(O)CC1CCC1C2CCC23CC4OC4C(=O)C2CCC13` [Compound 19b, (3α,5α,22R,23R)-22,23-Epoxy-3-hydroxy-13,24-cyclo-18,21-dinorcholan-20-one], the melting point was 194 to 195 °C. Besides, the IC50 in data set [1] is 0.313 ± 0.018 µM. In addition, in data set [2], the “Oocyte electrophysiology, ratio of currents in presence/absence of compound, 0.1 μM” value worked out at 1.13 ± 0.02; the “Oocyte electrophysiology, ratio of currents in presence/absence of compound, 1 μM” value came to 2.11 ± 0.26; the “Oocyte electrophysiology, ratio of currents in presence/absence of compound, 10 μM” value is listed as 5.47 ± 0.62; the “Gating (10 μM), ratio” value came to 0.21 ± 0.02. Also, in the data set with Xenopus laevis tadpoles, the “LRR ED50 (loss of righting response)” value was found to be 0.96 ± 0.29 µM and the EC50 (in general, the concentration that produces a half-maximal response) was found to be 10 µM.

Consider `CC(=O)[C@H]1CC[C@H]2[C@@H]3CC[C@H]4C[C@H](O)CC[C@]4(C)[C@H]3CC[C@]12C` [Compound 1a, (3α,5α)-3-Hydroxypregnan-20-one, reference compound], for which the “Reversibility of steroid effect on GABA current (FIG. 1A)” value in data set [2] (500 nM compound, 2 μM GABA, GABA recovery panel) is listed as “readily reversible”. The “LRR ED50 (loss of righting response)” value with Xenopus laevis tadpoles was found to be 0.42 ± 0.04 µM. Moreover, the concentration for a half-maximal effect (EC50) in the data set on Xenopus laevis tadpoles (Xenopus laevis, 3 h) is 5.5 ± 0.48 µM.

Molecule `C=C1CC[C@]23CCC4C(CC[C@H]5C[C@H](O)CC[C@]45C)C2CC[C@@H]3C1` (stereo partly drawn) [Compound 53, (3α,5α)-22-Methylene-13,24-cyclo-18,21-dinorcholan-3-ol] had a melting point of 187 to 188 °C. The same molecule came in with an IC50 in data set [1] of 107 ± 29.6 µM. In data set [2], the “Oocyte electrophysiology, ratio of currents in presence/absence of compound, 10 μM” value was 1.05 ± 0.04.

On to `CC(=O)[C@H]1CC[C@H]2[C@@H]3CC[C@@H]4C[C@H](O)CC[C@]4(C)[C@H]3CC[C@]12C` [Compound 1b, (3α,5β)-3-Hydroxypregnan-20-one, reference compound], for which the “LRR ED50 (loss of righting response)” value with Xenopus laevis tadpoles stood at 0.063 ± 0.003 µM. Also, the EC50 in the data set on Xenopus laevis tadpoles (Xenopus laevis, 3 h) was 0.3 µM.
